In publication PMC3982560, “Synthesis of fluorescent analogs of relaxin family peptides and their preliminary in vitro and in vivo characterization” (Frontiers in Chemistry, 2013):

Legend:
[1] = test system: central RXFP1 activation (water drinking); experiment: Drinking (dipsogenic) response after icv infusion; assay type: in vivo; conditions: adult male C57B/6J mice; single 4 μg dose icv in 4 μl aCSF; n = 3–4; observed 30 min
Excerpt: (§1) Adult male C57B/6J mice (10-weeks old) were deeply anesthetized by inhalation of 4% isoflurane and anaesthesia was maintained with 2% isoflurane administered at 0.2 l/min through a nasal cone. Mice were secured in a stereotaxic frame and an incision made to expose the skull, which was cleaned with 6% hydrogen peroxide. Two 1 mm-diameter holes were drilled in the skull on either side of the sagittal midline, 3 mm posterior and 3 mm lateral to bregma, to allow small screws (3 mm long) to be secured in order to anchor the guide cannula in place. A third hole of 1 mm in diameter was drilled through the skull to allow implantation of a stainless-steel guide cannula (11 mm long, 24 gauge) just above the lateral ventricle at the coordinates relative to bregma: anterior-posterior −0.46 mm; medial-lateral −0.8 mm; dorsal-ventral −1.8 mm. The guide cannula and screws were fixed in place by application of self-curing acrylic dental cement (Vertex-Dental, the Netherlands).
After 5–10 days recovery post-surgery, mice were gently restrained and an injector was inserted through the guide cannula which protruded 0.5 mm into the lateral ventricle. A single 4 μg dose of each peptide (n = 3–4) was delivered in 4 μ l of artificial CSF (aCSF; 147 mM NaCl, 4 mM KCl, 0.85 mM MgCl2, and 2.3 mM CaCl2), over 1 min via a 10 μ l syringe (0.46 mm diameter) mounted on an infusion pump connected to the injector via polyethylene tubing. Following infusion, the injector was left in place for a further 15 s to prevent backflow of the infused peptide up the guide cannula.
Following peptide infusion, mice were placed back in their clear-walled home cages for 30 min with access to water (and food) and filmed through the side of the cage for subsequent assessment of behavior. After 30 min, mice were killed by isoflurane inhalation overdose, decapitated, and brains were removed and “post-fixed” by immersion in chilled 4% PFA solution. […] Sections were viewed and images collected using a confocal laser scanning microscope, using laser light at λ of 633 nm, while light between λ of 650–750 nm was detected.

RXFP2 = target: T1, RXFP2 (Homo sapiens, UniProt Q8WXD0); experiment: cAMP reporter gene assay (pCRE β-galactosidase); conditions: cell-based assay, HEK-293T RXFP2
T1 construct: expressed in transfected cells; host or cells: HEK-293T (co-transfected with pCRE β-galactosidase reporter)
T1 sequence (Q8WXD0 whole entry, species assumed): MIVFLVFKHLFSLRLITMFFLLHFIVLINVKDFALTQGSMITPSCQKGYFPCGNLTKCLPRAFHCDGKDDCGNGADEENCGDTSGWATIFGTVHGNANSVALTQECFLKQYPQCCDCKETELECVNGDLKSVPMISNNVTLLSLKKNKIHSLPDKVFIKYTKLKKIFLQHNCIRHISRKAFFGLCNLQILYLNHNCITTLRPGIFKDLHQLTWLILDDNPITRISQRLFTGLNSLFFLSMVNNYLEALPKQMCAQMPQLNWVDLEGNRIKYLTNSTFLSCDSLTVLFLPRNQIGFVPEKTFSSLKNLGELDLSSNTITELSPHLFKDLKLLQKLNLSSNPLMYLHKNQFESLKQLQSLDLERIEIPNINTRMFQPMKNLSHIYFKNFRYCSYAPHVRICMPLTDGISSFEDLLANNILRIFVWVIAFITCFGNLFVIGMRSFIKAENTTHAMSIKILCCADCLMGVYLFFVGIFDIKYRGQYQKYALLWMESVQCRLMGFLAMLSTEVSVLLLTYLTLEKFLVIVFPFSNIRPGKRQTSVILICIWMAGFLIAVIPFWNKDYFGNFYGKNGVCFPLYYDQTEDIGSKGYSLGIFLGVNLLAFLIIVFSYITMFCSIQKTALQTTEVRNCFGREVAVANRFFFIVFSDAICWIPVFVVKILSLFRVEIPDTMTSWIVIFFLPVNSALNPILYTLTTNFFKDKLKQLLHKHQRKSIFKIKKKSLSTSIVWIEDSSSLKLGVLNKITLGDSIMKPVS
Description: The ability of the Cy5.5-labeled insulin/relaxin family peptide analogs to stimulate cAMP production was evaluated using a cAMP reporter gene assay as described (Scott et al., [2006]). HEK-293T cells co-transfected with either RXFP1 or RXFP2 and a pCRE β-galactosidase reporter plasmid were plated in 96-well plates (Chen et al., [1995]). After 24 h, the co-transfected cells were incubated with increasing concentrations of relaxin analogs in parallel to 10 nM of H2 relaxin or INSL3 for RXFP1- or RXFP2- transfected cells, respectively. The amount of cAMP-driven β-galactosidase expression in each well was assessed with a colormetric assay measuring absorbance at 570 nm on a microplate spectrophotometer. Ligand-induced cAMP stimulation was expressed as a percentage of maximal response of H2 relaxin or INSL3 for RXFP1 and RXFP2 cells, respectively. Each data point was measured in triplicate and each experiment conducted independently at least three separate times. Statistical differences in pEC50 values were analyzed using One-Way ANOVA coupled to the Newman Keul's multiple comparison test for multiple group comparisons in GraphPad Prism 4.

brain tissue = experiment: Brain distribution of Cy5.5 fluorescence after icv infusion; assay type: in vivo; conditions: mice, 30 min after icv injection of 4 μg
Excerpt: as §1, with “Netherlands). […]” for “Netherlands).”
Following peptide infusion, mice were placed back in their clear-walled home cages for 30 min with access to water (and food) and filmed through the side of the cage for subsequent assessment of behavior. […] Sections were viewed and images collected using a confocal laser scanning microscope, using laser light at λ of 633 nm, while light between λ of 650–750 nm was detected.

CCCC[N+]1=C(C=CC=CC=C2N(CCCCCC(=O)NCCCn3cc(C[C@H](N)C(=O)N[C@@H](CC(=O)O)C(=O)N[C@@H](CO)C(=O)N[C@@H](Cc4c[nH]c5ccccc45)C(=O)N[C@@H](CCSC)C(=O)N[C@@H](CCC(=O)O)C(=O)N[C@@H](CCC(=O)O)C(=O)N[C@H](C(=O)N[C@H](C(=O)N[C@@H](CCCCN)C(=O)N[C@@H](CC(C)C)C(=O)N[C@H]4CSSC[C@@H]5NC(=O)[C@@H](NC(=O)[C@H](CCCCN)NC(=O)[C@H](CC(N)=O)NC(=O)[C@H](C)NC(=O)[C@H](CC(C)C)NC(=O)[C@H](C)NC(=O)[C@@H](N)CO)CSSC[C@H](NC(=O)CNC(=O)[C@H](C(C)C)NC(=O)[C@H](Cc6c[nH]cn6)NC5=O)C(=O)N[C@@H]([C@@H](C)O)C(=O)N[C@@H](CCCCN)C(=O)N[C@@H](CCCNC(=N)N)C(=O)N[C@@H](CO)C(=O)N[C@@H](CC(C)C)C(=O)N[C@@H](C)C(=O)N[C@@H](CCCNC(=N)N)C(=O)N[C@@H](C)C(=O)N[C@H](C(=O)O)CSSC[C@@H](C(=O)NCC(=O)N[C@@H](CCSC)C(=O)N[C@@H](CO)C(=O)N[C@H](C(=O)N[C@@H](Cc5c[nH]c6ccccc56)C(=O)N[C@@H](CO)C(=O)O)[C@@H](C)O)NC(=O)[C@H]([C@@H](C)CC)NC(=O)[C@H](C)NC(=O)[C@H]([C@@H](C)CC)NC(=O)[C@H](CCC(N)=O)NC(=O)[C@H](C)NC(=O)[C@H](CCCNC(=N)N)NC(=O)[C@H](C(C)C)NC(=O)[C@H](CC(C)C)NC(=O)[C@H](CCC(=O)O)NC(=O)[C@H](CCCNC(=N)N)NC(=O)CNC4=O)[C@@H](C)CC)C(C)C)nn3)c3ccc4ccccc4c3C2(C)C)C(C)(C)c2c1ccc1ccccc21 [Cy5.5-H2:A(4-24)(F23A)]
Drinking behavior after icv infusion (in words) [1]: stimulated a similar increase in drinking behavior

CCCC[N+]1=C(C=CC=CC=C2N(CCCCCC(=O)NCCCn3cc(C[C@H](N)C(=O)N4CCC[C@H]4C(=O)N[C@H](C(=O)N4CCC[C@H]4C(=O)N[C@@H](CCC(=O)O)C(=O)N[C@@H](CCSC)C(=O)N[C@@H](CCCNC(=N)N)C(=O)N[C@@H](CCC(=O)O)C(=O)N[C@@H](CCCCN)C(=O)N[C@@H](CC(C)C)C(=O)N[C@H]4CSSC[C@@H]5NC(=O)[C@@H](NC(=O)[C@H](Cc6ccc(O)cc6)NC(=O)[C@H](CCCNC(=N)N)NC(=O)[C@H](C)NC(=O)[C@@H]6CCCN6C(=O)[C@H](CC(N)=O)NC(=O)[C@@H](NC(=O)[C@H](C)NC(=O)[C@H](C)NC(=O)[C@H](C)N)[C@@H](C)O)CSSC[C@H](NC(=O)CNC(=O)[C@H](CO)NC(=O)[C@H](CC(C)C)NC5=O)C(=O)N[C@@H]([C@@H](C)O)C(=O)N[C@@H](CCC(N)=O)C(=O)N[C@@H](CCC(N)=O)C(=O)N[C@@H](CC(=O)O)C(=O)N[C@@H](CC(C)C)C(=O)N[C@@H](CC(C)C)C(=O)N[C@@H]([C@@H](C)O)C(=O)N[C@@H](CC(C)C)C(=O)N[C@H](C(=O)N5CCC[C@H]5C(=O)N[C@@H](Cc5ccc(O)cc5)C(=O)O)CSSC[C@@H](C(=O)NCC(=O)NCC(=O)N5CCC[C@H]5C(=O)N[C@@H](CCCNC(=N)N)C(=O)N[C@@H](Cc5c[nH]c6ccccc56)C(=O)N[C@@H](CO)C(=O)N[C@H](C(=O)N[C@@H](CCC(=O)O)C(=O)N[C@@H](C)C(=O)O)[C@@H](C)O)NC(=O)[C@H](C(C)C)NC(=O)[C@H](CCCNC(=N)N)NC(=O)[C@H](C(C)C)NC(=O)[C@H](CC(C)C)NC(=O)[C@H](C)NC(=O)[C@H](CCCNC(=N)N)NC(=O)[C@H](C(C)C)NC(=O)[C@H](Cc5ccccc5)NC(=O)[C@H](Cc5c[nH]cn5)NC(=O)[C@H](Cc5c[nH]cn5)NC(=O)CNC4=O)[C@@H](C)O)nn3)c3ccc4ccccc4c3C2(C)C)C(C)(C)c2c1ccc1ccccc21 [Cy5.5-INSL3]
Drinking behavior after icv infusion (in words) [1]: did not initiate a drinking response

CCCC[N+]1=C(C=CC=CC=C2N(CCCCCC(=O)NCCCn3cc(C[C@H](N)C(=O)N[C@@H](CC(=O)O)C(=O)N[C@@H](CO)C(=O)N[C@@H](Cc4c[nH]c5ccccc45)C(=O)N[C@@H](CCSC)C(=O)N[C@@H](CCC(=O)O)C(=O)N[C@@H](CCC(=O)O)C(=O)N[C@H](C(=O)N[C@H](C(=O)N[C@@H](CCCCN)C(=O)N[C@@H](CC(C)C)C(=O)N[C@H]4CSSC[C@@H]5NC(=O)[C@@H](NC(=O)[C@H](CCCCN)NC(=O)[C@H](CC(N)=O)NC(=O)[C@H](C)NC(=O)[C@H](CC(C)C)NC(=O)[C@H](C)NC(=O)[C@H](CO)NC(=O)[C@H](Cc6ccc(O)cc6)NC(=O)[C@H](CC(C)C)NC(=O)[C@@H]6CCC(=O)N6)CSSC[C@H](NC(=O)CNC(=O)[C@H](C(C)C)NC(=O)[C@H](Cc6c[nH]cn6)NC5=O)C(=O)N[C@@H]([C@@H](C)O)C(=O)N[C@@H](CCCCN)C(=O)N[C@@H](CCCNC(=N)N)C(=O)N[C@@H](CO)C(=O)N[C@@H](CC(C)C)C(=O)N[C@@H](C)C(=O)N[C@@H](CCCNC(=N)N)C(=O)N[C@@H](Cc5ccccc5)C(=O)N[C@H](C(=O)O)CSSC[C@@H](C(=O)NCC(=O)N[C@@H](CCSC)C(=O)N[C@@H](CO)C(=O)N[C@H](C(=O)N[C@@H](Cc5c[nH]c6ccccc56)C(=O)N[C@@H](CO)C(=O)O)[C@@H](C)O)NC(=O)[C@H]([C@@H](C)CC)NC(=O)[C@H](C)NC(=O)[C@H]([C@@H](C)CC)NC(=O)[C@H](CCC(N)=O)NC(=O)[C@H](C)NC(=O)[C@H](CCCNC(=N)N)NC(=O)[C@H](C(C)C)NC(=O)[C@H](CC(C)C)NC(=O)[C@H](CCC(=O)O)NC(=O)[C@H](CCCNC(=N)N)NC(=O)CNC4=O)[C@@H](C)CC)C(C)C)nn3)c3ccc4ccccc4c3C2(C)C)C(C)(C)c2c1ccc1ccccc21 [Cy5.5-H2 relaxin]
Activation of RXFP2 (in words) (RXFP2): activated
Drinking behavior after icv infusion (in words) [1]: stimulated a similar increase in drinking behavior
Distance from the ventricle wall beyond which little or no Cy5.5 fluorescence was seen (brain tissue; confocal microscopy): > 300 μm
Distribution of Cy5.5 fluorescence in brain (in words) (brain tissue; confocal microscopy of 40 μm coronal sections): high levels of Cy5.5 were present within the ventricle wall and brain tissue proximal to the major cerebral ventricles
